# Data published in patent US8808715B1, “Methods and compositions for modulating keratinocyte function” (Georgia Regents Research Institute, Inc, priority 2004, dated 2014).
# How the values were obtained:
# [1] = test system: rapidly dividing keratinocytes; assay: Assay of DNA synthesis ([3H]thymidine incorporation) in rapidly dividing keratinocytes; assay type: cell-based; conditions: for effect on DNA synthesis in presence of 125 μM Ca2+ / effect on DNA synthesis ([3H]thymidine incorporation into DNA) / concentration of maximal inhibition of DNA synthesis / inhibition of DNA synthesis compared with egg-derived PG / lowest concentration at which inhibition of DNA synthesis was observed / inhibition of DNA synthesis, percent of control (in words): 24 hours; for effect on DNA synthesis in presence of 125 μM Ca2+: 125 μM Ca2+ medium; for effect on DNA synthesis ([3H]thymidine incorporation into DNA): control (25 μM Ca2+) medium; for concentration at which DNA synthesis was inhibited / inhibition of DNA synthesis, percent of control (in words): FIG. 21B; for concentration at which DNA synthesis was inhibited: lowest tested 25 μg/mL, highest tested 100 μg/mL; for concentration of maximal inhibition of DNA synthesis / inhibition of DNA synthesis compared with egg-derived PG / lowest concentration at which inhibition of DNA synthesis was observed: liposomes; for inhibition of DNA synthesis compared with egg-derived PG / lowest concentration at which inhibition of DNA synthesis was observed: FIG. 20A; for inhibition of DNA synthesis, percent of control (in words): PG versus PP headgroup species
# Description: (§1) Keratinocytes were prepared from ICR CD-I outbred mice in accordance with a protocol approved by the Institutional Animal Care and Use Committee. Briefly, the skins were harvested and incubated overnight in 0.25% trypsin at 4° C. The epidermis and dermis were separated and basal keratinocytes scraped from the underside of the epidermis. The cells were collected by centrifugation and incubated overnight in an atmosphere of 95% air/5% carbon dioxide at 37° C. in plating medium as described in Dodd M E, Ristich V L, Ray S, Lober R M, Bollag W B (2005) Regulation of protein kinase D during differentiation and proliferation of primary mouse keratinocytes. J Invest Dermatol 125:294-306, incorporated herein by reference. The plating medium was replaced with serum-free keratinocyte medium (SFKM) also as in Dodd, et al., and the cells were refed every 1-2 days with fresh medium until use.
# (§2) [^3H]Thymidine incorporation into DNA was determined as a measure of DNA synthesis as previously described by Griner, et al., above. Near-confluent keratinocyte cultures were incubated for 24 hours in SFKM containing the indicated additions. PG was added in the form of liposomes prepared by bath sonication of dried PG in SFKM to make a stock solution of 2 mg/mL. [^3H]Thymidine at a final concentration of 1 μCi/mL was then added to the cells for an additional 1-hour incubation. Reactions were terminated by washing with PBS- and macromolecules precipitated with ice-cold 5% trichloroacetic acid. Cells were solubilized in 0.3 M NaOH and the radioactivity incorporated into DNA quantified by liquid scintillation spectroscopy.
# (§3) [^3H]Thymidine incorporation was used as a measure of DNA synthesis and was performed as described in Example 2. Liposomes containing PG and functional derivatives thereof were prepared by bath sonication as described in Example 2, with the exception that different concentrations of material were employed.
# [2] = test system: AQP3 null mutant mouse; conditions: studies of the AQP3 null mutant mouse; cited from earlier work
# [3] = test system: primary epidermal keratinocytes; assay: Radiolabeled phosphatidylglycerol formation in intact keratinocytes; assay type: cell-based, mouse
# Description: Primary epidermal keratinocytes were prepared from 1-3-day old neonatal ICR mice after trypsin flotation of the skin and mechanical separation of the epidermis from the dermis. The epidermal cells were released by scraping, collected by centrifugation and plated in 6-well dishes in a medium consisting of MEM containing 25 μM calcium, 2% dialyzed fetal bovine serum, 2 mM glutamine, 5 ng/mL EGF, ITS (6.25 μg/mL insulin+6.25 μg/mL transferrin+6.25 ng/mL selenious acid+5.35 μg/mL linoleic acid+1.25% bovine serum albumin), 100 U/mL penicillin, 100 μg/mL streptomycin and 0.25 μg/mL fungizone. After an overnight incubation, the cells were refed with serum-free keratinocyte medium (SFKM), in which 2% dialyzed fetal bovine serum was replaced with 90 μg/mL bovine pituitary extract. Cells were refed with fresh medium every 1-3 days.
# For the PLD assay cultured primary keratinocytes were labeled for 20-24 hours with 2.5 μCi/ml [^3H] oleic acid. The cells were then exposed to vehicle or 100 nM PMA in the presence of 0.5% ethanol for 30 minutes. To measure the formation of radiolabeled phosphatidylglycerol, cells were treated for 24 hours with SFKM containing vehicle, 250 nM 1,25-dihydroxyvitamin D3 or 125 μM calcium and then labeled for an additional 30 minutes with 1-2.5 μCi/mL [^3H] or 0.4-0.5 μCi/mL [^14C]glycerol. For experiments investigating the extracellular calcium dependence of PG formation, cells were incubated for 24 hours in SFKM containing various calcium concentrations prior to the addition of 5 μCi/mL [^3H]glycerol for 30 minutes. In some cases, cells were stimulated with 25 μM calcium (control)—or 125 μM calcium-containing SFKM for 24 hours prior to the addition of [^14C]glycerol in the presence and absence of 1% ethanol. To measure phosphatidylglycerol formation in response to PMA, unlabeled cells were stimulated with 100 nM PMA in the presence of radiolabeled glycerol, as above. Reactions were terminated and the radiolabeled phosphatidylalcohol extracted, separated by thin-layer chromatography and quantified as described by Bollag (1998), referenced above.
# [4] = test system: slowly dividing keratinocytes; assay: Assay of DNA synthesis ([3H]thymidine incorporation) in slowly proliferating keratinocytes; assay type: cell-based, mouse; conditions: liposomes, 24 hours; for effect on DNA synthesis ([3H]thymidine incorporation into DNA): keratinocytes with reduced proliferation; for lowest concentration at which stimulation of DNA synthesis was observed / stimulation of DNA synthesis compared with egg-derived PG: FIG. 20B
# Description: Confluent keratinocytes were treated for 24 hours with the indicated concentrations of phosphatidylglycerol (PG), prepared via bath sonication of PG in serum-free keratinocyte medium. [^3H]Thymidine incorporation into DNA was then determined as above. [^3H]Thymidine incorporation into DNA under control conditions was 12,880±1,040 cpm/well. Values represent the means±SEM of 3 separate experiments performed in duplicate; *p<0.01, **p<0.001 versus the control value.
# as §1, §2, §3
compound,measurement,setting,value
"CC(O)CO (centres unmarked) [1,2-propylene glycol]",effect on DNA synthesis in presence of 125 μM Ca2+,[1],dose dependent inhibition
same,effect on DNA synthesis ([3H]thymidine incorporation into DNA),[1],dose dependent inhibition
same,correction of the epidermal phenotype of the knockout model,[2],not
"OCCCO [1,3-propylene glycol]",correction of the epidermal phenotype of the knockout model,[2],not
"C=C1/C(=C\C=C2/CCC[C@]3(C)[C@@H]([C@H](C)CCCC(C)(C)O)CC[C@@H]23)C[C@@H](O)C[C@@H]1O [1,25-dihydroxyvitamin D3]",radiolabeled PG formation relative to control cells,"[3]; 24 hours pretreatment (250 nM 1,25-dihydroxyvitamin D3 or 125 μM calcium), then [3H]glycerol 30 minutes",did not increase radiolabeled PG formation
same,PG production,"[3]; intermediate (10 nM) and high (250 nM) concentrations, 24 hours",significantly inhibited PG production
"CCCCCC(=O)OCC(COP(=O)(O)OCC(O)CO)OC(=O)CCCCC (centres unmarked) [DHPG, dihexanoyl-PG]",effect on DNA synthesis ([3H]thymidine incorporation into DNA),[4],only mildly stimulatory
"CCCCC/C=C\C/C=C\CCCCCCCC(=O)OC[C@H](COP(=O)(O)OCC(O)CO)OC(=O)CCCCCCC/C=C\C/C=C\CCCCC (some centres unmarked) [DLPG, dilinoleoyl-PG]",effect on DNA synthesis ([3H]thymidine incorporation into DNA),[1],inhibit DNA synthesis in a dose dependent manner
same,concentration at which DNA synthesis was inhibited,[1],≤ 25 µg/mL
same,concentration of maximal inhibition of DNA synthesis,[1],100 µg/mL
same,inhibition of DNA synthesis compared with egg-derived PG,[1],at least as strongly as egg-derived PG
same,lowest concentration at which inhibition of DNA synthesis was observed,[1],6.25 µg/mL
"CCCCC/C=C\C/C=C\CCCCCCCC(=O)OC[C@H](COP(=O)(O)OCCC)OC(=O)CCCCCCC/C=C\C/C=C\CCCCC [DLPP, dilinoleoyl-PP]","inhibition of DNA synthesis, percent of control (in words)",[1],not statistically significant
same,concentration at which DNA synthesis was inhibited,[1],100 µg/mL
"CCCCCCCC/C=C\CCCCCCCC(=O)OC[C@H](COP(=O)(O)OCC(O)CO)OC(=O)CCCCCCC/C=C\CCCCCCCC (some centres unmarked) [DOPG, dioleoyl-PG]",effect on DNA synthesis ([3H]thymidine incorporation into DNA),[1],no inhibition of DNA synthesis
same,concentration of maximal stimulation of DNA synthesis,[4],100 µg/mL
same,lowest concentration at which stimulation of DNA synthesis was observed,[4],12.5 µg/mL
same,stimulation of DNA synthesis compared with egg-derived PG,[4],more potently than egg-derived PG
same,effect on DNA synthesis ([3H]thymidine incorporation into DNA),[4],potent stimulator of DNA synthesis
"CCCCCCCC/C=C\CCCCCCCC(=O)OC[C@H](COP(=O)(O)OCCC)OC(=O)CCCCCCC/C=C\CCCCCCCC [DOPP, dioleoyl-phosphatidylpropanol]",effect on DNA synthesis ([3H]thymidine incorporation into DNA),[1],no impact on DNA synthesis
same,"inhibition of DNA synthesis, percent of control (in words)",[1],lack of effect
"CCCCCCCCCCCCCCCC(=O)OCC(COP(=O)(O)OCC(O)CO)OC(=O)CCCCCCCCCCCCCCC (centres unmarked) [DPPG, dipalmitoyl-PG]",lowest concentration at which stimulation of DNA synthesis was observed,[4],50 µg/mL
same,stimulation of DNA synthesis compared with egg-derived PG,[4],approximately the same level as egg-derived PG
"CCCCCCCCCCCCCCCC(=O)OC[C@H](COP(=O)(O)OCCC)OC(=O)CCCCCCCCCCCCCCC [DPPP, dipalmitoyl-PP]",effect on DNA synthesis ([3H]thymidine incorporation into DNA),[1],did not affect DNA synthesis
same,"inhibition of DNA synthesis, percent of control (in words)",[1],lack of effect
"CCCCC/C=C\C/C=C\C/C=C\C/C=C\CCCC(=O)O[C@H](COC(=O)CCCCCCCCCCCCCCC)COP(=O)(O)OCC(O)CO (some centres unmarked) [PAPG, palmitoyl-arachidonoyl-PG]",effect on DNA synthesis ([3H]thymidine incorporation into DNA),[1],inhibit DNA synthesis in a dose dependent manner
same,concentration of maximal inhibition of DNA synthesis,[1],100 µg/mL
same,inhibition of DNA synthesis compared with egg-derived PG,[1],at least as strongly as egg-derived PG
same,lowest concentration at which inhibition of DNA synthesis was observed,[1],12.5 µg/mL
same,effect on DNA synthesis ([3H]thymidine incorporation into DNA),[4],only mildly stimulatory
"CCCCCCCC/C=C\CCCCCCCC(=O)O[C@H](COC(=O)CCCCCCCCCCCCCCC)COP(=O)(O)OCC(O)CO (some centres unmarked) [POPG, palmitoyl-oleoyl-PG]",effect on DNA synthesis ([3H]thymidine incorporation into DNA),[1],moderate inhibition of DNA synthesis
same,lowest concentration at which inhibition of DNA synthesis was observed,[1],100 µg/mL
same,effect on DNA synthesis ([3H]thymidine incorporation into DNA),[4],only mildly stimulatory
CCO [ethanol],basal (control) PG production,"[3]; 1% ethanol, 25 μM calcium control cells",without affecting basal (control) PG production
same,PG formation stimulated by preexposure to elevated extracellular calcium,"[3]; 1% ethanol, cells pretreated with 125 μM calcium, [14C]glycerol",significantly inhibited PG formation
OC[C@@H](O)[C@@H](O)[C@H](O)[C@@H](O)CO [sorbitol],effect on DNA synthesis in presence of 125 μM Ca2+,[1],no significant effect
same,effect on DNA synthesis ([3H]thymidine incorporation into DNA),[1],no significant effect
OC[C@@H](O)[C@H](O)[C@@H](O)CO [xylitol],effect on DNA synthesis in presence of 125 μM Ca2+,[1],no significant effect
same,effect on DNA synthesis ([3H]thymidine incorporation into DNA),[1],no significant effect
same,correction of the epidermal phenotype of the knockout model,[2],not
palmitoyl-linoleoyl-PG [PLPG],effect on DNA synthesis ([3H]thymidine incorporation into DNA),[1],inhibit DNA synthesis in a dose dependent manner
same,concentration of maximal inhibition of DNA synthesis,[1],100 µg/mL
same,inhibition of DNA synthesis compared with egg-derived PG,[1],at least as strongly as egg-derived PG
same,lowest concentration at which inhibition of DNA synthesis was observed,[1],50 µg/mL
